Experimental data as given in PMC11718471 (World Journal of Diabetes, 2025).

How the values were obtained:
[1] = Plasma IAsp exposure during 8-hour euglycemic clamp; assay type: in vivo, human; conditions: healthy subjects, 0.2 IU/kg s.c., group A (basal BG < 4.00 mmol/L, target BG 2.5% below baseline), before PSM, n = 15, LC-MS/MS, trapezoidal, mean ± SD
[2] = system: blood glucose; test: Euglycemic clamp, glucose infusion rate; assay type: in vivo, human; conditions: healthy subjects, 0.2 IU/kg s.c., 8-hour euglycemic clamp, 20% dextrose, group A (target BG 2.5% below baseline), n = 15, mean ± SD

For insulin aspart [IAsp], the “AUCIAsp, 0-8 h” value [1] was 566 ± 51 ng·h/mL, the “AUCGIR, 0-8 h” value ([2]; after PSM) was 1433 ± 400 mg/kg and the “AUCGIR, 0-8 h” value ([2]; before PSM) was 1433 ± 400 mg/kg.
